PMC6891286, “Towards the Development of an In vivo Chemical Probe for Cyclin G Associated Kinase (GAK)” (Molecules, 2019)

Experiments:
Test in all cases: KINOMEscan
Format in all cases: binding
Details in all cases: 35 at 1 µM; read-out: % inhibition
[1] = target: T1, NEK9 (Homo sapiens, UniProt Q8TD19)
T1 construct: purchased Eurofins DiscoverX (KINOMEscan)
Protocol: (§1) KinomeScan Assay on 35 was performed as previously described at EuroFins DiscoverX (Fremont, CA, USA).

[2] = target: T2, TIE1 (Homo sapiens, UniProt P35590)
T2 construct: purchased Eurofins DiscoverX (KINOMEscan)
Protocol: as §1

[3] = target: T3, HIPK4 (Homo sapiens, UniProt Q8NE63)
T3 construct: purchased Eurofins DiscoverX (KINOMEscan)
T3 sequence (Q8NE63 whole entry): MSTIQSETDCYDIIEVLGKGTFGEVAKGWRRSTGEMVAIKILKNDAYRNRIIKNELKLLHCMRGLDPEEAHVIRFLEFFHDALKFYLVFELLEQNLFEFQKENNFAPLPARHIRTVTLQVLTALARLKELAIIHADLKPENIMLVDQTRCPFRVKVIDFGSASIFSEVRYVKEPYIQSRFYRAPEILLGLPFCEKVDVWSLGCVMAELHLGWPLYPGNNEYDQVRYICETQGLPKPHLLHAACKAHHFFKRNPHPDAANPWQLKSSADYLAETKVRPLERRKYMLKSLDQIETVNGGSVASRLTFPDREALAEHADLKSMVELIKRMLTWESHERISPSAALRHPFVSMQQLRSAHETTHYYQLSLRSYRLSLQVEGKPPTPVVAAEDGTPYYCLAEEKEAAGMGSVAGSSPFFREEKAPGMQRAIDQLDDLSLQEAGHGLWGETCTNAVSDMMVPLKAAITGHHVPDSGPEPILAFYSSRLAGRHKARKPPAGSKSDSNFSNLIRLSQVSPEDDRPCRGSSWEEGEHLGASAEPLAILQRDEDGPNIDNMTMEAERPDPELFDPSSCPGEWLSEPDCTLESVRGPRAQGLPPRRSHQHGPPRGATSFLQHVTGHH
Protocol: as §1

[4] = target: T4, DCAMKL2 (Homo sapiens, UniProt Q8N568)
T4 construct: purchased Eurofins DiscoverX (KINOMEscan)
Protocol: as §1

[5] = target: T5, NEK2 (Homo sapiens, UniProt P51955)
T5 construct: purchased Eurofins DiscoverX (KINOMEscan)
Protocol: as §1

[6] = target: T6, RIPK5 (Homo sapiens, UniProt Q6XUX3)
T6 construct: purchased Eurofins DiscoverX (KINOMEscan)
Protocol: as §1

[7] = target: T7, JNK1 (Homo sapiens, UniProt P45983)
T7 construct: purchased Eurofins DiscoverX (KINOMEscan)
Protocol: as §1

[8] = target: T8, PIM3 (Homo sapiens, UniProt Q86V86)
T8 construct: purchased Eurofins DiscoverX (KINOMEscan)
Protocol: as §1

[9] = target: T9, ABL1(T315I)-nonphosphorylated (Homo sapiens, UniProt P00519, T315I)
T9 construct: purchased Eurofins DiscoverX (KINOMEscan)
Protocol: as §1

[10] = target: T10, MARK4 (Homo sapiens, UniProt Q96L34)
T10 construct: purchased Eurofins DiscoverX (KINOMEscan)
Protocol: as §1

[11] = target: T11, ULK3 (Homo sapiens, UniProt Q6PHR2)
T11 construct: purchased Eurofins DiscoverX (KINOMEscan)
T11 sequence (Q6PHR2 whole entry): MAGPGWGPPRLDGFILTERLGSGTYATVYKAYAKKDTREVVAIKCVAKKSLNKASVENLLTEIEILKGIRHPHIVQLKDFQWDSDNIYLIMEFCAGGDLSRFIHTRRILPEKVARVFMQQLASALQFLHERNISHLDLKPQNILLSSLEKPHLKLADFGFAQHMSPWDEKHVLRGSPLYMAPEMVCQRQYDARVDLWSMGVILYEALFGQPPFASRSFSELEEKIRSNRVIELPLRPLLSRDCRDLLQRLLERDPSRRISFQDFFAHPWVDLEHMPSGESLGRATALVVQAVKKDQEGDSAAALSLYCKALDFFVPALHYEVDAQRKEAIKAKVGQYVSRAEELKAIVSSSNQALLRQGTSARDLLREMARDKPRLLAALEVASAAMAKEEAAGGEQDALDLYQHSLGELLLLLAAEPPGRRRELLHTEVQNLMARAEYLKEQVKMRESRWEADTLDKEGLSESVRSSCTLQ
Protocol: as §1

[12] = target: T12, STK35 (Homo sapiens, UniProt Q8TDR2)
T12 construct: purchased Eurofins DiscoverX (KINOMEscan)
T12 sequence (Q8TDR2 whole entry): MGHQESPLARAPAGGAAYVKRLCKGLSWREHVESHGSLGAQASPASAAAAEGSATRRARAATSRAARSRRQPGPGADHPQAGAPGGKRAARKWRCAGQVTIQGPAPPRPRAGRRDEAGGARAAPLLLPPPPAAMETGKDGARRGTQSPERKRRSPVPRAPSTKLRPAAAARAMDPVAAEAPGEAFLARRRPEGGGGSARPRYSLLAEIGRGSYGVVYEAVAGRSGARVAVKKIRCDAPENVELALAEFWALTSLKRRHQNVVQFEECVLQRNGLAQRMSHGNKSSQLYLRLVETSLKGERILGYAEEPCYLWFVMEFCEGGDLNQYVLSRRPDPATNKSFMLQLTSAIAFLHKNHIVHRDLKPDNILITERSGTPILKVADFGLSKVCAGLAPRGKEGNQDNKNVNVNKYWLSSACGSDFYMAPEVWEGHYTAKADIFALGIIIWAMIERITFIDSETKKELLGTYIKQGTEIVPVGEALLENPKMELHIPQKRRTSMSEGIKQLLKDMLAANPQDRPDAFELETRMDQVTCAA
Protocol: as §1

[13] = target: T13, NIM1 (Homo sapiens, UniProt Q8IY84)
T13 construct: purchased Eurofins DiscoverX (KINOMEscan)
Protocol: as §1

[14] = target: T14, SNRK (Homo sapiens, UniProt Q9NRH2)
T14 construct: purchased Eurofins DiscoverX (KINOMEscan)
Protocol: as §1

[15] = target: T15, RIOK3 (Homo sapiens, UniProt O14730)
T15 construct: purchased Eurofins DiscoverX (KINOMEscan)
Protocol: as §1

[16] = target: T16, CSNK1G2 (Homo sapiens, UniProt P78368)
T16 construct: purchased Eurofins DiscoverX (KINOMEscan)
Protocol: as §1

[17] = target: T17, KIT-autoinhibited (Homo sapiens, UniProt P10721)
T17 construct: purchased Eurofins DiscoverX (KINOMEscan)
Protocol: as §1

[18] = target: T18, SRPK2 (Homo sapiens, UniProt P78362)
T18 construct: purchased Eurofins DiscoverX (KINOMEscan)
Protocol: as §1

[19] = target: T19, PAK2 (Homo sapiens, UniProt Q13177)
T19 construct: purchased Eurofins DiscoverX (KINOMEscan)
T19 sequence (Q13177 whole entry): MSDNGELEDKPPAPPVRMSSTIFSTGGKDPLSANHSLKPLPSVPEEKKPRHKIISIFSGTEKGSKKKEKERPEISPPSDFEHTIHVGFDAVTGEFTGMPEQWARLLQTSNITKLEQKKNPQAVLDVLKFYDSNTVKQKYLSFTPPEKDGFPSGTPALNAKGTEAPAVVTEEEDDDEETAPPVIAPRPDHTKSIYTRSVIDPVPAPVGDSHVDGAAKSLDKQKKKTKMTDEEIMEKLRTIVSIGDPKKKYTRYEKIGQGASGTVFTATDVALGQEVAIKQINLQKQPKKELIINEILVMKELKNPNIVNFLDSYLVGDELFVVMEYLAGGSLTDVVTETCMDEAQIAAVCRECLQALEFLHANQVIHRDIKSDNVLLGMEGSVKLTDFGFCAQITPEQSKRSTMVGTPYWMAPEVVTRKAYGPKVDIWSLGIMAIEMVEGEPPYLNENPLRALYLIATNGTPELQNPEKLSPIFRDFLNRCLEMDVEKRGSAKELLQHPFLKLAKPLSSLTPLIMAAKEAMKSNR
Protocol: as §1

[20] = target: T20, FYN (Homo sapiens, UniProt P06241)
T20 construct: purchased Eurofins DiscoverX (KINOMEscan)
Protocol: as §1

[21] = target: T21, VEGFR2 (Homo sapiens, UniProt P35968)
T21 construct: purchased Eurofins DiscoverX (KINOMEscan)
Protocol: as §1

[22] = target: T22, PIK3CA(M1043I) (Homo sapiens, UniProt P42336, M1043I)
T22 construct: purchased Eurofins DiscoverX (KINOMEscan)
T22 sequence (P42336 whole entry M1043I): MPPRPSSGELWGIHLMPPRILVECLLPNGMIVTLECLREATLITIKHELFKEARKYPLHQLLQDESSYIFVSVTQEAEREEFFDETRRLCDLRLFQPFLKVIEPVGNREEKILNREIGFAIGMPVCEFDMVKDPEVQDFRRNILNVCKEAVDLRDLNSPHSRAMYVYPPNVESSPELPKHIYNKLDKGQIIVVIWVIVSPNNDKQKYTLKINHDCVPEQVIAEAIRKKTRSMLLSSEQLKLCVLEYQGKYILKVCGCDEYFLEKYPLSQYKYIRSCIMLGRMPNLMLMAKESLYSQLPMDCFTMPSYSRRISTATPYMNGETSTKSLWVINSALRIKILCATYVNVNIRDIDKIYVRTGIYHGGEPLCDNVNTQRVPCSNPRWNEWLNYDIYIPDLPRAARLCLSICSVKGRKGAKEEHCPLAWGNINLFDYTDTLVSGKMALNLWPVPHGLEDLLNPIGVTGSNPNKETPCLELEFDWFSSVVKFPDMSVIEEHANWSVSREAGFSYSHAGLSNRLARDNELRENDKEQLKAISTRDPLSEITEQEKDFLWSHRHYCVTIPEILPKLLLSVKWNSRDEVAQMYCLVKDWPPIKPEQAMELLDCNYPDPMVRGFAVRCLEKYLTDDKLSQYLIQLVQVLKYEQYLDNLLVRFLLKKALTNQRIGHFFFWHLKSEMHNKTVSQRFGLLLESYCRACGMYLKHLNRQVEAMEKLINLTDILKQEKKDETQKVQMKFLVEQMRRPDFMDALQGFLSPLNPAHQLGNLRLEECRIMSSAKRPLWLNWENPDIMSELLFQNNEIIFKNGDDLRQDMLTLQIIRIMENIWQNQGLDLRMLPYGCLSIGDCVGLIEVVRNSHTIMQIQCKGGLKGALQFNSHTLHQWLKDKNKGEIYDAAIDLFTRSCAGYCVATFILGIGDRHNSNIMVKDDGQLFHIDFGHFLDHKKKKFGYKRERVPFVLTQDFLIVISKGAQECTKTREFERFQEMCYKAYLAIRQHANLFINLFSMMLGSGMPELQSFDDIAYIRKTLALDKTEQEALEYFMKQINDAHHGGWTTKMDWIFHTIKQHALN
Protocol: as §1

[23] = target: T23, TXK (Homo sapiens, UniProt P42681)
T23 construct: purchased Eurofins DiscoverX (KINOMEscan)
T23 sequence (P42681 whole entry): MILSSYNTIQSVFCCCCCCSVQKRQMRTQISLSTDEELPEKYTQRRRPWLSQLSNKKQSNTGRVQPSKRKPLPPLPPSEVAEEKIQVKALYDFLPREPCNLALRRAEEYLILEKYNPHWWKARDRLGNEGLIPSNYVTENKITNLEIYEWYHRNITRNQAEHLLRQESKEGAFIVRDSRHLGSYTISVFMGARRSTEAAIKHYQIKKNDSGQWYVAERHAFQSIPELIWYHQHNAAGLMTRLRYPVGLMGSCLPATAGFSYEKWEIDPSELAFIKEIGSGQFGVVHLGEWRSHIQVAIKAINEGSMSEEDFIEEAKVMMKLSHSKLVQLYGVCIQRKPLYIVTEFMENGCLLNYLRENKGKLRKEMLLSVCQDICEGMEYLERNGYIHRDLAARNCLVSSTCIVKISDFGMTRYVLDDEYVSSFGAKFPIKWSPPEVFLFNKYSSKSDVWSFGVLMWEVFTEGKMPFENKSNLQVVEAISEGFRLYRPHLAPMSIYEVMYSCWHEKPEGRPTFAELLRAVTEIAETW
Protocol: as §1

[24] = target: T24, RPS6KA5(Kin.Dom.2-C-terminal) (Homo sapiens, UniProt O75582)
T24 construct: RPS6KA5(Kin.Dom.2-C-terminal); purchased Eurofins DiscoverX (KINOMEscan)
T24 sequence (O75582 426-687 limits assumed): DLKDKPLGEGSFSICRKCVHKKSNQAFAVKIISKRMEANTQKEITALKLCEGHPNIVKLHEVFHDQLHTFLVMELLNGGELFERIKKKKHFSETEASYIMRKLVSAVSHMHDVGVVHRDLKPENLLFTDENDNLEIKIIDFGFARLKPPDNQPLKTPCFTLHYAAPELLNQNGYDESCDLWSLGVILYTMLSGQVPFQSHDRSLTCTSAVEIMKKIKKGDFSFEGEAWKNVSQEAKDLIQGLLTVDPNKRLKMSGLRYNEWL
Protocol: as §1

[25] = target: T25, EGFR (Homo sapiens, UniProt P00533)
T25 construct: purchased Eurofins DiscoverX (KINOMEscan)
Protocol: as §1

[26] = target: T26, NEK7 (Homo sapiens, UniProt Q8TDX7)
T26 construct: purchased Eurofins DiscoverX (KINOMEscan)
Protocol: as §1

[27] = target: T27, MAPKAPK2 (Homo sapiens, UniProt P49137)
T27 construct: purchased Eurofins DiscoverX (KINOMEscan)
Protocol: as §1

[28] = target: T28, CDK11 (Homo sapiens, UniProt Q9BWU1)
T28 construct: purchased Eurofins DiscoverX (KINOMEscan)
Protocol: as §1

[29] = target: T29, ERBB2 (Homo sapiens, UniProt P04626)
T29 construct: purchased Eurofins DiscoverX (KINOMEscan)
Protocol: as §1

[30] = target: T30, LRRK2 (Homo sapiens, UniProt Q5S007)
T30 construct: purchased Eurofins DiscoverX (KINOMEscan)
Protocol: as §1

T1 sequence (Q8TD19 whole entry): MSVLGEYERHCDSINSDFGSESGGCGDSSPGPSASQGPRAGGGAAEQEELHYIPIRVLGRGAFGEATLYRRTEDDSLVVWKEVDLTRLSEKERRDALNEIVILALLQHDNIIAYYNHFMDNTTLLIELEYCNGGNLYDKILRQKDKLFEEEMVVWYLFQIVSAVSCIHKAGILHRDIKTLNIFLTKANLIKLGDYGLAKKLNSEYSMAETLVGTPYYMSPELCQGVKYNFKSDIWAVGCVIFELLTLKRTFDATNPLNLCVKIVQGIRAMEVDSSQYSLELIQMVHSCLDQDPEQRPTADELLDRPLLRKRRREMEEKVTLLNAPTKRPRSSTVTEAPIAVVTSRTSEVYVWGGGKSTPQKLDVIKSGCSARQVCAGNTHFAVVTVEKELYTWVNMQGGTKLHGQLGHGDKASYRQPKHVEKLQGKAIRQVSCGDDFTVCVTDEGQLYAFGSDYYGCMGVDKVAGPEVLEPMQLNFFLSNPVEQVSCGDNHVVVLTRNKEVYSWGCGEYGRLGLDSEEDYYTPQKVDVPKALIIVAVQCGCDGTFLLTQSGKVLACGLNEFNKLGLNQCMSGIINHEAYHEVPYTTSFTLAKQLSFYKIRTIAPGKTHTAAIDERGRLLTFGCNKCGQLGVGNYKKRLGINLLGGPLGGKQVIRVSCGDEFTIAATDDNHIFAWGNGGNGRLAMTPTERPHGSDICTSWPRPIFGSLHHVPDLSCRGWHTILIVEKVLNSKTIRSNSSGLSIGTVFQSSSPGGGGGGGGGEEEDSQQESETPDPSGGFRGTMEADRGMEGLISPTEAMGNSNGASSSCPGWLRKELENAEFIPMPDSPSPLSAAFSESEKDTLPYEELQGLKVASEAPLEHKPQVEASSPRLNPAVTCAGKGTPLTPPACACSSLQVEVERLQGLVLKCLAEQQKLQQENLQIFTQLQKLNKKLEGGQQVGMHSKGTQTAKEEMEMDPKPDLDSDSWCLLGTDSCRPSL

Work on Brc1ccc2nccc(Nc3ccc4cn[nH]c4c3)c2c1 [Compound 35, 6-Bromo-N-(1H-indazol-6-yl)quinolin-4-amine] yielded an activity at 1 µM [1] of 100%, an activity at 1 µM [2] of 100% and an activity at 1 µM [3] of 57%. For the same compound, the activity at 1 µM [4] was 100%, the activity at 1 µM [5] was 86% and the activity at 1 µM [6] was 100%. It also gave an activity at 1 µM [7] of 83%, an activity at 1 µM [8] of 100% and an activity at 1 µM [9] of 100%. The activity at 1 µM [10] was 100%, the activity at 1 µM [11] was 81% and the activity at 1 µM [12] was 100%. It also gave an activity at 1 µM [13] of 88%, an activity at 1 µM [14] of 100% and an activity at 1 µM [15] of 100%. For the same compound, the activity at 1 µM [16] was 100%, the activity at 1 µM [17] was 100% and the activity at 1 µM [18] was 100%. For the same compound, the activity at 1 µM [19] was 85%, the activity at 1 µM [20] was 100% and the activity at 1 µM [21] was 100%. For the same compound, the activity at 1 µM [22] was 99%, the activity at 1 µM [23] was 100% and the activity at 1 µM [24] was 70%. It also gave an activity at 1 µM [25] of 100%, an activity at 1 µM [26] of 92% and an activity at 1 µM [27] of 100%. It also gave an activity at 1 µM [28] of 80%, an activity at 1 µM [29] of 100% and an activity at 1 µM [30] of 100%.
